Experimental data taken from patent US20260109721A1, “IONIZABLE CATIONIC LIPIDS INCORPORATING SILICON: SYNTHESIS AND LNP FORMULATION” (priority 2023, published 2026).

Tests used:
[1] = Encapsulation efficiency of loaded LNPs, RiboGreen RNA assay (Method A); format: physicochemical; conditions: encapsulation efficiency of mRNA-loaded LNP, Method A, RiboGreen
Method: (§1) The synthesized lipids were tested in term of in vitro transfection efficacy and toxicity on HeLa cells. In order to perform the mentioned biological tests, appropriate LNPs had to be formulated from the synthesized lipids. The formulation technique was different in Method A and B. The particle size, polydispersity index (PDI) and zeta potential of resulting LNPs were determined by means of Dynamic Light Scattering technique (DLS). Prior to biological testing the encapsulation efficiency (EE) of the loaded LNPs was determined by using RiboGreen RNA assay. In case of Method A Luc mRNA while in case of Method B GFP mRNA was transfected into the cells. In parallel with the transfection experiments, toxicity of the investigated LNPs was determined, in case of Method A resazurin assay while in case of Method B MTT assay was used. Additionally, the toxicity of the lipids was investigated on HepG2 cells and IC50 values were determined.
• 1. Preparation of sample stock solutions: In the top row of the 96-well plate (Row A in the plate), add 297 μL of TE buffer pH 7.4 (see Table 1) to a single well for each sample plus a single well for a PBS blank using a multichannel pipette.
• 2. Add 3 μL of sample (at 0.5 mg/ml) to these wells for a final volume of 300 μL. Add 3 μL of PBS to the blank well. Pipette to mix. This is your stock solution for each sample. The final RNA concentration of these stock solutions should be approximately 4-7 μg/mL. • 3. mRNA-LNP sample setup: • a. Add 50 μL of TE buffer pH 7.5 to the two wells directly below each sample (Rows B and C in the plate). • b. Add 50 μL of sample stock solution from Row A into the wells in Rows B and C (this assay is run in duplicate. All liquid handling should be done using a multichannel pipette). • c. Add 50 μL of Triton buffer to the wells in Rows D and E (in the plate) below each sample. • d. Add 50 μL of sample stock solution from Row A into the wells in Rows D and E. • 4. RiboGreen RNA standard curve setup: Dilute the RNA standard to produce an RNA stock at a final concentration of 20 μg/mL in TE buffer pH 7.4. The final volume should be 150 μL. Set up a standard curve (in duplicate) as using the RNA stock (20 μg/mL siRNA), TE buffer pH 7.5, and Triton X-100 buffer according the Table 2 and Table 3 below.
• 5. Once samples and standard curve are plated, incubate the plate at 37° C. for 10 min to lyse mRNA-LNP in the presence of Triton X-100 buffer. • 6. Meanwhile, prepare RiboGreen Solution: Sum the total number of sample wells and standard curve wells. Add three to this number, and multiply the total by 100. This is the total volume, in μL, of RiboGreen Solution needed for this assay. In a 15 mL RNAse-free Falcon tube, dilute the RiboGreen Reagent 1:100 into TE buffer pH 7.5 to the total volume calculated. • 7. Addition of RiboGreen Solution and sample readings: Remove a 96-well plate from 37° C. incubator; let it cool to room temperature as RiboGreen binding is somewhat temperature dependent. Add 100 μL of RiboGreen Solution to each well. Pop any air bubbles with a needle. Read using fluorescent plate reader (excitation=480, emission=525). • 8. Sample analysis: Use the data generated by the RiboGreen standard curve to calculate the concentration of mRNA. Transfection Efficiency with Luciferase-mRNA (Method A)

[2] = system: HeLa cells; test: Cell viability assessment with resazurin assay (Method A); format: cell-based; conditions: human
Method: as §1
This protocol is used to determine the metabolic activity of cells as a measure for cell viability after exposure to potentially toxic substances. Resazurin is converted in mitochondria by reduction to resorufin, which has a much higher fluorescence at ˜600 nm compared to unconverted resazurin. A lower amount/percentage of conversion is correlated with reduced cellular metabolism and indirectly to cellular death and toxicity. Care must be taken with interpretation of the read-out, as 50% reduction in resazurin conversion may mean 50% reduction of cellular metabolism of 100% alive cells, or 50% of cells dead, and any combination in between.
• 1. Prepare 0.25 mg/ml stock solution resazurin in fresh cell culture medium. Resazurin is auto-reducing over time in solution, especially in medium, and fresh stocks should be prepared every 2-3 days. Stocks should be stored at 4° C. and protected from light. For HeLa cells, DMEM/F12 with 10% FCS is used. • 2. Dilute stock solution 10× in fresh cell culture medium to 0.025 mg/ml->ready for application on cells. For HeLa cells, DMEM/F12 with 10% FCS is used. • 3. Collect 96-well plate and replace cell-culture spent medium with 100 μl per well resazurin solution. Add some resazurin solution for background measurement in wells not containing cells. • 4. Incubate for 50 minutes in incubator at 37° C., 5% CO2, 95% RH. • 5. Transfer resazurin solution to a fresh 96- or 384-well plate. • 6. Measure in plate reader using 540/25 nm (excitation) and 610/40 nm (emission) using standard settings (PTM low/OD-1.0). • 7. Subtract the average background measurement from all samples. Set the average of the negative controls (well receiving OptiMEM only during transfection) to 100% and express all values as percentage of the control activity. Typically, at lower levels of treatment, elevation of metabolic activity is shown, whereas for toxic substances, at toxic concentrations sigmoidal curves can be obtained, with lower activity indicating higher toxicity.

[3] = system: HepG2 cell line; test: In vitro toxicity study on HepG2 cell line (resazurin, viability and IC50); format: cell-based, human; conditions: resazurin; for Viability (%) at different lipid concentrations, mean: HepG2 cells, 48 h post-treatment, relative to ethanol vehicle controls; for IC50: Homo sapiens, lipid toxicity, HepG2, 48 h post-treatment, 6.25-800 μM, read-out: IC50 value, μM (on HepG2 cell)
Method: as §1
HepG2 cell line (human hepatocellular carcinoma) were maintained in DMEM medium supplemented with 10% FBS. Cell toxicity measurements were carried out in 384-well microtiter plates with 1000 cells seeded in each well. Test measurements were carried out in triplicate, and control measurements in quadruplicate. After an overnight incubation, the cells were treated with an increasing concentration of the test compounds (6.25, 12.5, 25, 50, 100, 200, 400, 800 μM). […] 48 h post-treatment, following visual inspection under an inverted microscope, cell viability was measured by resazurin assay. Viability of treated cells was calculated relative to that of ethanol vehicle controls. Concentration response curves (CRCs) were obtained and corresponding IC50 values were calculated where applicable and are shown in Table 9.
Resazurin reagent (Sigma-Aldrich) was dissolved in PBS (pH 7.4) at 0.15 mg/ml concentration, 0.22 μm filtered and aliquoted at −20° C., 10 μl resazurin stock solution was added to wells. After 5 hours incubation at 37° C. under 5% CO2 fluorescence (530 nm excitation/580 nm emission) was recorded on a multimode microplate reader.

CCCCCCCC/C=C\CCCCCCCC(OCCCCCCCCCCCCCCCC)O[Si](C)(C)OCCCCCCN(CCO)CCO (stereo not drawn) [Example 42, (Z)-13-(heptadec-8-en-1-yl)-3-(2-hydroxyethyl)-11,11-dimethyl-10,12,14-trioxa-3-aza-11-silatriacontan-1-ol]
EE (%) [1]: 87% | Cell Viability % (Average metabolic rate over all doses, Resazurin) [2]: 98% | Viability (%) at different lipid concentrations, mean ([3]; 6.25 μM lipid): 105.1% | Viability (%) at different lipid concentrations, mean ([3]; 12.5 μM lipid): 100.0% | Viability (%) at different lipid concentrations, mean ([3]; 25 μM lipid): 98.9% | Viability (%) at different lipid concentrations, mean ([3]; 50 μM lipid): 102.2% | Viability (%) at different lipid concentrations, mean ([3]; 100 μM lipid): 107.6% | Viability (%) at different lipid concentrations, mean ([3]; 200 μM lipid): 117.1% | Viability (%) at different lipid concentrations, mean ([3]; 400 μM lipid): 104.2% | Viability (%) at different lipid concentrations, mean ([3]; 800 μM lipid): 99.8% | IC50 [3]: > 800 µM

CCCCC/C=C\C/C=C\CCCCCCCCOC(CCCCCCCCCCCCCCC)O[Si](C)(C)OCCCCCCN(CCO)CCO (stereo not drawn) [Example 43, (23Z,26Z)-3-(2-hydroxyethyl)-11,11-dimethyl-13-pentadecyl-10,12,14-trioxa-3-aza-11-siladotriaconta-23,26-dien-1-ol]
EE (%) [1]: 83% | Cell Viability % (Average metabolic rate over all doses, Resazurin) [2]: 98% | Viability (%) at different lipid concentrations, mean ([3]; 6.25 μM lipid): 100.9% | Viability (%) at different lipid concentrations, mean ([3]; 12.5 μM lipid): 98.7% | Viability (%) at different lipid concentrations, mean ([3]; 25 μM lipid): 102.2% | Viability (%) at different lipid concentrations, mean ([3]; 50 μM lipid): 111.9% | Viability (%) at different lipid concentrations, mean ([3]; 100 μM lipid): 114.9% | Viability (%) at different lipid concentrations, mean ([3]; 200 μM lipid): 108.9% | Viability (%) at different lipid concentrations, mean ([3]; 400 μM lipid): 92.1% | Viability (%) at different lipid concentrations, mean ([3]; 800 μM lipid): 89.8% | IC50 [3]: > 800 µM

CCCCC/C=C\C/C=C\CCCCCCCC(OCCCCCCCCCCCCCCCC)O[Si](C)(C)OCCCCCCN(CCO)CCO (stereo not drawn) [Example 44, 13-((8Z,11Z)-heptadeca-8,11-dien-1-yl)-3-(2-hydroxyethyl)-11,11-dimethyl-10,12,14-trioxa-3-aza-11-silatriacontan-1-ol]
EE (%) [1]: 82% | Cell Viability % (Average metabolic rate over all doses, Resazurin) [2]: 94% | Viability (%) at different lipid concentrations, mean ([3]; 6.25 μM lipid): 100.8% | Viability (%) at different lipid concentrations, mean ([3]; 12.5 μM lipid): 98.5% | Viability (%) at different lipid concentrations, mean ([3]; 25 μM lipid): 106.8% | Viability (%) at different lipid concentrations, mean ([3]; 50 μM lipid): 112.7% | Viability (%) at different lipid concentrations, mean ([3]; 100 μM lipid): 122.0% | Viability (%) at different lipid concentrations, mean ([3]; 200 μM lipid): 118.8% | Viability (%) at different lipid concentrations, mean ([3]; 400 μM lipid): 103.0% | Viability (%) at different lipid concentrations, mean ([3]; 800 μM lipid): 94.0% | IC50 [3]: > 800 µM

CCCCC/C=C\C/C=C\CCCCCCCC(OCCCCCCCC/C=C\CCCCCCCC)O[Si](C)(C)OCCCCCCN(CCO)CCO (stereo not drawn) [Example 45, (Z)-13-((8Z,11Z)-heptadeca-8,11-dien-1-yl)-3-(2-hydroxyethyl)-11,11-dimethyl-10,12,14-trioxa-3-aza-11-siladotriacont-23-en-1-ol]
EE (%) [1]: 82% | Cell Viability % (Average metabolic rate over all doses, Resazurin) [2]: 96% | Viability (%) at different lipid concentrations, mean ([3]; 6.25 μM lipid): 105.6% | Viability (%) at different lipid concentrations, mean ([3]; 12.5 μM lipid): 99.4% | Viability (%) at different lipid concentrations, mean ([3]; 25 μM lipid): 100.4% | Viability (%) at different lipid concentrations, mean ([3]; 50 μM lipid): 106.0% | Viability (%) at different lipid concentrations, mean ([3]; 100 μM lipid): 109.5% | Viability (%) at different lipid concentrations, mean ([3]; 200 μM lipid): 107.1% | Viability (%) at different lipid concentrations, mean ([3]; 400 μM lipid): 64.9% | Viability (%) at different lipid concentrations, mean ([3]; 800 μM lipid): 1.1% | IC50 [3]: 421 µM

CCCCC/C=C\C/C=C\CCCCCCCCOC(CCCCCCC/C=C\CCCCCCCC)O[Si](C)(C)OCCCCCCN(CCO)CCO (stereo not drawn) [Example 46, (23Z,26Z)-13-((Z)-heptadec-8-en-1-yl)-3-(2-hydroxyethyl)-11,11-dimethyl-10,12,14-trioxa-3-aza-11-siladotriaconta-23,26-dien-1-ol]
EE (%) [1]: 81% | Cell Viability % (Average metabolic rate over all doses, Resazurin) [2]: 95% | Viability (%) at different lipid concentrations, mean ([3]; 6.25 μM lipid): 103.7% | Viability (%) at different lipid concentrations, mean ([3]; 12.5 μM lipid): 100.6% | Viability (%) at different lipid concentrations, mean ([3]; 25 μM lipid): 101.2% | Viability (%) at different lipid concentrations, mean ([3]; 50 μM lipid): 97.4% | Viability (%) at different lipid concentrations, mean ([3]; 100 μM lipid): 103.1% | Viability (%) at different lipid concentrations, mean ([3]; 200 μM lipid): 101.8% | Viability (%) at different lipid concentrations, mean ([3]; 400 μM lipid): 99.8% | Viability (%) at different lipid concentrations, mean ([3]; 800 μM lipid): 92.1% | IC50 [3]: > 800 µM

CCCCCCCC/C=C\CCCCCCCCOC(CCCCCCC/C=C\CCCCCCCC)O[Si](C)(C)OCCCCCCN(CCO)CCO (stereo not drawn) [Example 47, (Z)-13-((Z)-heptadec-8-en-1-yl)-3-(2-hydroxyethyl)-11,11-dimethyl-10,12,14-trioxa-3-aza-11-siladotriacont-23-en-1-ol]
EE (%) [1]: 88% | Cell Viability % (Average metabolic rate over all doses, Resazurin) [2]: 89% | Viability (%) at different lipid concentrations, mean ([3]; 6.25 μM lipid): 104.8% | Viability (%) at different lipid concentrations, mean ([3]; 12.5 μM lipid): 98.6% | Viability (%) at different lipid concentrations, mean ([3]; 25 μM lipid): 99.5% | Viability (%) at different lipid concentrations, mean ([3]; 50 μM lipid): 105.3% | Viability (%) at different lipid concentrations, mean ([3]; 100 μM lipid): 112.3% | Viability (%) at different lipid concentrations, mean ([3]; 200 μM lipid): 116.3% | Viability (%) at different lipid concentrations, mean ([3]; 400 μM lipid): 97.9% | Viability (%) at different lipid concentrations, mean ([3]; 800 μM lipid): 93.6% | IC50 [3]: > 800 µM
